Results as given in patent US9999222B2, “Herbicidal combination comprising azines” (BASF SE, priority 2014, dated 2018).
Like-named read-outs stand apart in the source and are kept apart here.

Tests used:
Assay in all cases: Greenhouse test, pre-emergence treatment
SETVI = type: in vivo, Setaria viridis
Text: (§1) The culture containers used were plastic flowerpots containing loamy sand with approximately 3.0% of humus as the substrate. The seeds of the test plants were sown separately for each species.
(§2) For the pre-emergence treatment, the active ingredients, which had been suspended or emulsified in water, were applied directly after sowing by means of finely distributing nozzles. The containers were irrigated gently to promote germination and growth and subsequently covered with transparent plastic hoods until the plants had rooted. This cover caused uniform germination of the test plants, unless this had been impaired by the active ingredients.
(§3) Depending on the species, the plants were kept at 10-25° C. or 20-35° C., respectively.
(§4) The test period extended over 2 to 4 weeks. During this time, the plants were tended, and their response to the individual treatments was evaluated.
(§5) Evaluation was carried out using a scale from 0 to 100. 100 means no emergence of the plants, or complete destruction of at least the aerial moieties, and 0 means no damage, or normal course of growth. A moderate herbicidal activity is given at values of at least 60, a good herbicidal activity is given at values of at least 70, and a very good herbicidal activity is given at values of at least 85.
(§6) The respective stated components a and b, and if appropriate, c were formulated as a 10% by weight strength emulsion concentrate and, with addition of the amount of solvent system, introduced into the spray liquor used for applying the active compound.
(§7) In the examples, the solvent used was water.
(§8) In the examples below, using the method of S. R. Colby (1967) “Calculating synergistic and antagonistic responses of herbicide combinations”, Weeds 15, p. 22ff., the value E, which is expected if the activity of the individual active compounds is only additive, was calculated. E=X+Y−(X·Y/100) where • X=percent activity using active compound a at an application rate A; • Y=percent activity using active compound b at an application rate B; • E=expected activity (in %) by a+b at application rates A+B.
(§9) If the value found experimentally is higher than the value E calculated according to Colby, a synergistic effect is present.

ELEIN = type: in vivo, Eleusine indica
Text: as §1, §2, §3, §4, §5, §6, §7, §8, §9

IPOHE = type: in vivo, Ipomoea hederacea
How it was run: (§10)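 Damage was rated on a 0-100 scale, with 100 meaning no emergence or full destruction of aerial parts. Observed combination effects were set against the additive Colby expectation E=X+Y−(X·Y/100). Spray liquor was water-based, from 10% emulsion concentrates, applied pre-emergence right after sowing in loamy sand (about 3.0% humus). Plants were held at 10-25 °C or 20-35 °C for 2 to 4 weeks.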

SIDRH = type: in vivo, Sida rhombifolia; settings: pre-emergence
How it was run: as §10

CENCY [1] = type: in vivo, Centaurea cyanus
CENCY [2] = type: in vivo; settings: individual
ERICA [3] = type: in vivo, Erigeron canadensis
ERICA [4] = type: in vivo; settings: 480 h, read-out: observed % activity 20 DAT
DIGSA [5] = type: in vivo, Digitaria sanguinalis; settings: 4 g ai/ha
DIGSA [6] = type: in vivo; settings: Digitaria sanguinalis, 480 h, read-out: observed % activity 20 DAT
[7] = Ipomoea hederacea, 480 h, 4 g ai/ha, read-out: observed % activity 20 DAT
[8] = Sida rhombifolia, 480 h, 8 g ai/ha, read-out: observed % activity 20 DAT

**Q.** Which “observed % activity 20 DAT” value (SETVI; 2 g ai/ha) does the source give for `Nc1nc(Nc2c(F)c(F)cc(F)c2F)nc(C2(F)CCCC2)n1` [compound 9, 6-(1-fluorocyclopentyl)-N4-(2,3,5,6-tetrafluorophenyl)-1,3,5-triazine-2,4-diamine] here?
**A.** 90%

**Q.** What about the “observed % activity 20 DAT” value (SETVI; 4 g ai/ha) of the same compound?
**A.** 90%

**Q.** What about the inhibition at 2 g/ha (SETVI; Setaria viridis, 480 h, 2 g ai/ha, read-out: observed % activity 20 DAT) of the same compound?
**A.** 70%

**Q.** What about the inhibition at 4 g/ha (SETVI; Setaria viridis, 480 h, 4 g ai/ha, read-out: observed % activity 20 DAT) of the same compound?
**A.** 80%

**Q.** And the “observed % activity 20 DAT” value (ELEIN; 2 g ai/ha)?
**A.** 95%

**Q.** What about the inhibition at 2 g/ha (ELEIN; Eleusine indica, 480 h, 2 g ai/ha, read-out: observed % activity 20 DAT) of the same compound?
**A.** 95%

**Q.** What about the inhibition at 4 g/ha (ELEIN; Eleusine indica, 480 h, 4 g ai/ha, read-out: observed % activity 20 DAT) of the same compound?
**A.** 98%

**Q.** And the “observed % activity 20 DAT” value (IPOHE; 16 g ai/ha)?
**A.** 15%

**Q.** And the “observed % activity 20 DAT” value (IPOHE; IPOHE, individual, use rate 16 g ai/ha)?
**A.** 15%

**Q.** And the inhibition at 4 g/ha (IPOHE; [7])?
**A.** 0%

**Q.** And the pest or weed control at 4 g/ha (IPOHE; [7])?
**A.** 0%

**Q.** What about the inhibition at 16 g/ha (IPOHE; Ipomoea hederacea, 480 h, 16 g ai/ha, read-out: observed % activity 20 DAT) of the same compound?
**A.** 10%

**Q.** And the inhibition at 16 g/ha (IPOHE; Ipomoea hederacea, 480 h, IPOHE, individual, use rate 16 g ai/ha, read-out: observed % activity 20 DAT)?
**A.** 10%

**Q.** And the “observed % activity 20 DAT” value (SIDRH; SIDRH, individual, use rate 8 g ai/ha)?
**A.** 15%

**Q.** What about the “observed % activity 20 DAT” value (SIDRH; SIDRH, individual, use rate 16 g ai/ha) of the same compound?
**A.** 55%

**Q.** What about the pest or weed control at 4 g/ha (SIDRH; Sida rhombifolia, 480 h, 4 g ai/ha, read-out: observed % activity 20 DAT) of the same compound?
**A.** 10%

**Q.** And the pest or weed control at 8 g/ha (SIDRH; [8])?
**A.** 10%

**Q.** What about the inhibition at 8 g/ha (SIDRH; Sida rhombifolia, 480 h, SIDRH, individual, use rate 8 g ai/ha, read-out: observed % activity 20 DAT) of the same compound?
**A.** 25%

**Q.** What about the inhibition at 8 g/ha (SIDRH; [8]) of the same compound?
**A.** 25%

**Q.** And the inhibition at 16 g/ha (SIDRH; Sida rhombifolia, 480 h, 16 g ai/ha, read-out: observed % activity 20 DAT)?
**A.** 30%

**Q.** What about the “observed % activity 20 DAT” value (CENCY [1]; 4 g ai/ha) of the same compound?
**A.** 40%

**Q.** What about the “observed % activity 20 DAT” value (CENCY [1]; 8 g ai/ha) of the same compound?
**A.** 20%

**Q.** What about the inhibition at 8 g/ha (CENCY [2]; 480 h, use rate 8 g ai/ha, read-out: observed % activity 20 DAT) of the same compound?
**A.** 20%

**Q.** What about the inhibition at 16 g/ha (CENCY [2]; 480 h, use rate 16 g ai/ha, read-out: observed % activity 20 DAT) of the same compound?
**A.** 15%

**Q.** And the “observed % activity 20 DAT” value (CENCY [2]; use rate 8 g ai/ha)?
**A.** 35%

**Q.** And the “observed % activity 20 DAT” value (ERICA [3]; 4 g ai/ha)?
**A.** 98%

**Q.** What about the “observed % activity 20 DAT” value (ERICA [3]; 8 g ai/ha) of the same compound?
**A.** 98%

**Q.** What about the inhibition at 4 g/ha (ERICA [4]; 4 g ai/ha) of the same compound?
**A.** 98%

**Q.** And the inhibition at 8 g/ha (ERICA [4]; 8 g ai/ha)?
**A.** 98%

**Q.** What about the “observed % activity 20 DAT” value (DIGSA [5]) of the same compound?
**A.** 80%

**Q.** What about the inhibition at 2 g/ha (DIGSA [6]; 2 g ai/ha) of the same compound?
**A.** 75%

**Q.** What about the inhibition at 4 g/ha (DIGSA [6]; 4 g ai/ha) of the same compound?
**A.** 60%
